According to the supplement of paper PMC6470124:

How the values were obtained:
[1] = LC retention time (Atlantis T3, 5-95% MeOH gradient, 0.1% formic acid); higher = more retained / less polar
How it was run: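 Retention times refer to reference standards measured by liquid chromatography with high-resolution tandem mass spectrometry. Separation was on an Atlantis T3 C18 column (3 × 150 mm, 3 μm) at 0.3 mL/min with a 5 to 95% methanol gradient over 17.5 min, both solvents carrying 0.1% formic acid. Positive and negative electrospray were run separately on a QExactive Plus, and TraceFinder peak integration (5 ppm tolerance, at least three points per peak) was reviewed by hand.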

[2] = absolute recovery over mixed-bed multilayer solid-phase extraction; higher = better recovery; conditions: enrichment method: SPE
How it was run: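 Elution from a three-layer mixed-bed cartridge used basic followed by acidic ethyl acetate/methanol, after loading either 1000 mL of unfiltered nanopure water or 100–250 mL of wastewater that had been set to pH 6.5 and glass-fibre filtered. Standards went in before or after extraction, or were left out, at 200 ng/L (water) or 1000 ng/L (wastewater), with class exceptions. Internal standards were added afterwards, and measurement was by liquid chromatography with high-resolution tandem mass spectrometry in both ionisation modes. For absolute recovery, background-corrected response ratios of pre-spiked samples were compared with those of post-spiked samples and averaged over at least two replicates.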

[3] = absolute recovery over vacuum-assisted evaporative concentration; higher = better recovery; conditions: enrichment method: VEC
How it was run: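 Absolute recovery was calculated as (response ratio pre − unspiked)/(post − unspiked) × 100 from averages of ≥ 2 replicates. Influent (6 mL), effluent (15 mL), and surface and nanopure water (60 mL) samples were spiked with standards before concentration, after concentration, or not at all, at 200 ng/L for nanopure and surface water or 1000 ng/L for wastewater, with class- and compound-specific adjustments. Samples were evaporated at 55 °C and 20 mbar to about 0.3 mL, made up to 0.4 mL and centrifuged, then internal standards were added before LC-HRMS/MS analysis.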

Row | Compound | LC retention time [1] [min] | absolute recovery ([2]; nanopure water) [%] | absolute recovery ([2]; surface water) [%] | absolute recovery ([2]; wastewater effluent) [%] | absolute recovery ([2]; wastewater influent) [%] | absolute recovery ([3]; wastewater effluent) [%] | absolute recovery ([3]; wastewater influent) [%]
1 | [O-]n1nnc2ccccc21 [1-Hydroxybenzotriazole H] | 11.6 | 99.2 | 45.5 | 60.4 | 67.3 | 126 | 73
2 | CNC(=O)Oc1cc(C)c(SC)c(C)c1 [Methiocarb] | 19.4 | 96.3 | 95.4 | 92.7 | 88.7 | 67.9 | 64
3 | CCNc1nc(Cl)nc(NCC)n1 [Simazin] | 17.2 | 94.2 | 94.4 | 88.3 | 94.9 | 98.3 | 106
4 | C[NH+]1C2CCC1CC(OC(=O)C(CO)c1ccccc1)C2 (configuration not stated) [Atropine] | 11.1 | 94.2 | 93.2 | 90.9 | 91.5 | 106 | 99.7
5 | CCCC1COC(Cn2cncn2)(c2ccc(Cl)cc2Cl)O1 (configuration not stated) [Propiconazol] | 21.1 | 97.2 | 94.8 | 91.8 | – | 104 | 101
6 | CS(=O)(=O)c1ccc(C(=O)[C-]2C(=O)CCCC2=O)c(Cl)c1 [Sulcotrion] | 16.7 | 97.7 | 93.4 | 94.8 | 93.9 | 103 | 101
7 | CCOCN(C(=O)CCl)c1c(C)cccc1CC [Acetochlor B] | 20.4 | 94 | 93.3 | 91.1 | 91.6 | 83.4 | 76.8
8 | CC(C)Nc1nc(N)nc(Cl)n1 [Atrazin-Desethyl] | 15.3 | 92.5 | 96.9 | 92.1 | 91.6 | 102 | 101
9 | Fc1ccc(C2(Cn3cncn3)OC2c2ccccc2Cl)cc1 (configuration not stated) [Epoxiconazol] | 20.3 | 100 | 95.4 | 93.9 | 92.7 | 103 | 99.3
10 | CC1(C)SC(CNC(=O)C([NH3+])c2ccc(O)cc2)[NH2+]C1C(=O)[O-] (configuration not stated) [Amoxicillin-EP-Impurity-E] | 9.5 | – | 12.2 | 17.8 | 30.7 | 59.2 | 96.9
11 | COc1cccc(C(=O)NN(C(=O)c2cc(C)cc(C)c2)C(C)(C)C)c1C [Methoxyfenozid] | 19.7 | 104 | 103 | 98.1 | 94.8 | 104 | 98.9
12 | CON=C(C(=O)OC)c1ccccc1COc1ccccc1C [Kresoxim-methyl] | 20.7 | 103 | 110 | 103 | 93.5 | 98.9 | 89.9
13 | CCC1(c2cccc(O)c2)CCCC[NH+](C)C1 (configuration not stated) [Meptazinol] | 12.1 | 90.6 | 92.9 | 86.5 | 91.9 | 110 | 103
14 | CC1(C(=O)Nc2ccc(O)c(Cl)c2Cl)CCCCC1 [Fenhexamid] | 20.1 | 102 | – | – | 97 | 92.1 | 96.3
15 | CCC(C)c1cc([N+](=O)[O-])cc([N+](=O)[O-])c1[O-] (configuration not stated) [Dinoseb] | 21.5 | 103 | 82.6 | 89.1 | 123 | 94.2 | 91.8
16 | C#CC[NH2+]C(C)Cc1ccccc1 (configuration not stated) [Nordeprenyl] | 11.5 | 74.8 | 84.7 | 80.2 | 78.3 | 38.9 | 11.4
17 | Cc1cc(Cl)ccc1OC(C)C(=O)[O-] (configuration not stated) [Mecoprop] | 20 | 100 | 99.2 | 94.9 | 94.2 | 101 | 99
18 | COc1ccc(C(C[NH+](C)C)C2(O)CCCCC2)cc1 (configuration not stated) [Venlafaxin] | 14 | 95.3 | 96.8 | 93.3 | 99.1 | 106 | 100
19 | COC(=O)C1C(OC(=O)c2ccccc2)CC2CCC1[NH+]2C (configuration not stated) [Cocaine] | 12.2 | 97.2 | 96.4 | 93.8 | 94.5 | 71.1 | 62.2
20 | CCNC(=O)NC(=O)C(C#N)=NOC [Cymoxanil] | 15.2 | 98.4 | 83.5 | 87.9 | 115 | 53.4 | 69.8
21 | Cc1c(N(C)C)c(=O)n(-c2ccccc2)n1C [4-Dimethylaminoantipyrin (=Aminopyrin)] | 9.33 | 72.8 | 79.5 | 77 | 88.2 | 89.8 | 92.9
22 | COc1cccc(C2(O)CCCCC2C[NH3+])c1 (configuration not stated) [N-Bisdesmethyl-Tramadol] | 12.8 | 50.1 | 47.4 | 46.3 | 70.2 | 105 | 98.5
23 | COC(=O)c1sccc1S(=O)(=O)[N-]C(=O)Nc1nc(C)nc(OC)n1 [Thifensulfuron-methyl] | 16.7 | 98.9 | 95 | 93.4 | 92.3 | 104 | 114
24 | Nc1ccc(C=Cc2ccc(N)cc2S(=O)(=O)[O-])c(S(=O)(=O)[O-])c1 [4-4-diamino-2,2-stilbenedisulfonic-acid] | 4.15 | 14.5 | 3.4 | 9.1 | 7.8 | 30 | –
25 | CC(=NC#N)N(C)Cc1ccc(Cl)nc1 [Acetamiprid] | 14.3 | 110 | 93.8 | 89 | – | 102 | 90.8

Second part, the compound after the results:

Row | LC retention time [1] [min] | absolute recovery ([2]; nanopure water) [%] | absolute recovery ([2]; surface water) [%] | absolute recovery ([2]; wastewater effluent) [%] | absolute recovery ([2]; wastewater influent) [%] | absolute recovery ([3]; wastewater effluent) [%] | absolute recovery ([3]; wastewater influent) [%] | Compound
26 | 8.45 | 80.1 | 80.6 | 77.1 | 93.3 | 101 | 101 | CC[NH+]1CCCC1CNC(=O)c1cc(S(N)(=O)=O)ccc1OC (configuration not stated) [Sulpirid]
27 | 18 | 86.5 | 80.2 | 80.9 | 94 | 102 | 57.5 | CC12CCC(=O)C=C1CCC1C2C(O)CC2(C)C1CCC2(O)C(=O)CO (configuration not stated) [Hydrocortison]
28 | 20.4 | 105 | 127 | 113 | 74.2 | 127 | 120 | CCOC(=O)NCCOc1ccc(Oc2ccccc2)cc1 [Fenoxycarb]
29 | 22.4 | 56.8 | 67.2 | 70.9 | – | 111 | 103 | CCCCCC(C)OC(=O)COc1ccc(Cl)c2cccnc12 (configuration not stated) [Cloquintocet-mexyl]
30 | 17.5 | 87.3 | 91.5 | 87.4 | 92.3 | 105 | 89 | [O-][n+]1nc(-n2ccnc2)nc2ccc(Cl)cc21 [Triazoxide]
31 | 18.4 | 92.4 | 91.2 | 94 | 95.1 | 99.2 | 103 | CCC(C)C(=O)OC1CC(O)C=C2C=CC(C)C(CCC(O)CC(O)CC(=O)[O-])C21 (configuration not stated) [Pravastatin]
32 | 17.5 | 98.7 | 95.6 | 96.8 | 97.6 | 102 | 104 | Cc1cccc(C)c1N(Cn1cccn1)C(=O)CS(=O)(=O)[O-] [Metazachlor-ESA]
33 | 13.1 | 104 | 98.1 | 98.7 | 121 | 117 | 94.9 | CCC1OC(=O)C(C)C(OC2CC(C)(OC)C(O)C(C)O2)C(C)C(OC2OC(C)CC([NH2+]C)C2O)C(C)(O)CC(C)C[NH+](C)C(C)C(O)C1(C)O (configuration not stated) [N-Desmethyl-Azithromycin]
34 | 18 | 88 | 82.7 | 82.1 | 91.4 | 104 | 63.1 | CC12C=CC(=O)C=C1CCC1C2C(O)CC2(C)C1CCC2(O)C(=O)CO (configuration not stated) [Prednisolon]
35 | 10.8 | 84.3 | 91.3 | 94.8 | 85 | 120 | 109 | C[NH+](C)CCOC(C)(c1ccccc1)c1ccccn1 (configuration not stated) [Doxylamine]
36 | 20.8 | 93.9 | 95 | 91.2 | 91.5 | 104 | 98.9 | COc1ccc2c(c1)c(CC(=O)[O-])c(C)n2C(=O)c1ccc(Cl)cc1 [Indomethacin]
37 | 20.5 | 95.4 | 101 | 102 | 76.1 | 109 | 108 | Cn1cc(C(=O)Nc2ccc(F)cc2-c2ccc(Cl)c(Cl)c2)c(C(F)F)n1 [Bixafen]
38 | 11.7 | 79.2 | 77.5 | 81.8 | 92.3 | 102 | 105 | c1ccc2[nH]c(-c3cscn3)nc2c1 [Thiabendazol]
39 | 12.5 | 75.9 | 24.7 | 44.2 | 60.1 | 105 | 105 | CCC(CC)OC1C=C(C(=O)[O-])CC([NH3+])C1NC(C)=O (configuration not stated) [Oseltamivir-carboxylat]
40 | 18.9 | 93.1 | 92.3 | 84.4 | 88.4 | 106 | 101 | CC1CC2C(C(O)CC3(C)C2CCC3(O)C(=O)CO)C2(C)C=CC(=O)C=C12 (configuration not stated) [Methylprednisolon]
41 | 14.5 | 94.1 | 96.1 | 92.4 | 93.9 | 104 | 100 | C[NH+](C)CCCC1(c2ccc(F)cc2)OCc2cc(C#N)ccc21 (configuration not stated) [Citalopram]
42 | 14.2 | 94.1 | – | 96.5 | – | 98.1 | 104 | NS(=O)(=O)c1cc(C2(O)NC(=O)c3ccccc32)ccc1Cl (configuration not stated) [Chlorthalidon]
43 | 15.9 | 100 | 95.5 | 89.9 | 136 | 100 | 95.6 | CN(C)S(=O)(=O)Nc1ccccc1 [DMSA (=N-N-Dimethylaminosulfanilid)]
44 | 9.72 | 75.9 | 87.2 | 84.2 | 85.2 | 103 | 101 | Nc1nc(=O)n(C2CSC(CO)O2)cc1F (configuration not stated) [Emtricitabine]
45 | 17.1 | 95.6 | 97.5 | 92.4 | 87.4 | 108 | 103 | Cc1cccc(C)c1N(Cn1cccn1)C(=O)C(=O)[O-] [Metazachlor-OXA]
46 | 14.7 | 69.9 | 77.5 | 77.3 | 80.4 | 101 | 107 | CCOC(=O)C1=CC(OC(CC)CC)C(NC(C)=O)C([NH3+])C1 (configuration not stated) [Oseltamivir]
47 | 14 | 122 | 101 | 100 | 92.3 | 98.5 | 104 | NC(=O)c1cn(Cc2c(F)cccc2F)nn1 [Rufinamid]
48 | 9.66 | 84.8 | 81.9 | 83.8 | 82 | 104 | 98.7 | c1ccc(C2CN3CCSC3=[NH+]2)cc1 (configuration not stated) [Levamisol]
49 | 15.7 | 97 | 99.3 | 91.4 | 101 | 105 | 101 | CC(C)(C(=O)[O-])c1ccc(C(O)CCC[NH+]2CCC(C(O)(c3ccccc3)c3ccccc3)CC2)cc1 (configuration not stated) [Fexofenadin]
50 | 21.9 | 101 | 95.7 | 93.3 | – | 102 | 97.7 | Cc1cccc(Nc2ccccc2C(=O)[O-])c1C [Mefenamic-acid]
51 | 13.3 | 90.1 | 98.4 | 93.3 | 82 | 98.7 | 102 | Cc1nc2n(c(=O)c1CC[NH+]1CCC(c3noc4cc(F)ccc34)CC1)CCCC2 [Risperidone]
